How the values were obtained:
Assay in all cases: relative viability (nuclei count vs DMSO), 5 days (fraction); higher = more cells survive
Cediranib + Luminespib = compound: COc1cc2c(Oc3ccc4[nH]c(C)cc4c3F)ncnc2cc1OCCCN1CCCC1 [Cediranib] + CCNC(=O)c1noc(-c2cc(C(C)C)c(O)cc2O)c1-c1ccc(CN2CCOCC2)cc1 [Luminespib] (partner 0.01 µM)
Summary of the method: (§1)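 A single step with final 0.05% Triton X-100, 1% formaldehyde and 1 ug/ml Hoechst fixed the cells and stained nuclei 5 days after treatment. Lung cancer cell lines in 1536-well plates had been treated by pin tool the day after seeding with one drug alone or a fixed anchor-drug dose plus five library-drug doses (not always all listed) in √10 steps, and nuclei were counted on 4× images. Relative viability is the ratio of nuclei in treated wells to nuclei in vehicle wells, taken as the median of duplicate plates.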

Halofuginone + AZD7762 = compound: O=C(C[C@H]1NCCC[C@@H]1O)Cn1cnc2cc(Br)c(Cl)cc2c1=O (racemic) [Halofuginone] + NC(=O)Nc1cc(-c2cccc(F)c2)sc1C(=O)N[C@H]1CCCNC1 [AZD7762] (partner 0.2 µM)
Summary of the method: as §1

Cediranib + Pictilisib = compound: COc1cc2c(Oc3ccc4[nH]c(C)cc4c3F)ncnc2cc1OCCCN1CCCC1 [Cediranib] + CS(=O)(=O)N1CCN(Cc2cc3nc(-c4cccc5[nH]ncc45)nc(N4CCOCC4)c3s2)CC1 [Pictilisib] (partner 1 µM)
Summary of the method: as §1

[1] = compound: O=C(C[C@H]1NCCC[C@@H]1O)Cn1cnc2cc(Br)c(Cl)cc2c1=O (racemic) [Halofuginone] + CC(=O)Nc1cccc(-n2c(=O)n(C3CC3)c(=O)c3c(Nc4ccc(I)cc4F)n(C)c(=O)c(C)c32)c1 [Trametinib] (partner 0.02 µM)
Summary of the method: as §1

Row | Cell Line | relative viability (Cediranib + Luminespib; first compound 0.04 µM) | relative viability (Cediranib + Luminespib; first compound 0.1265 µM) | relative viability (Cediranib + Luminespib; first compound 0.4 µM) | relative viability (Cediranib + Luminespib; first compound 1.265 µM) | relative viability (Cediranib + Luminespib; first compound 4 µM) | relative viability (Halofuginone + AZD7762; first compound 0.001 µM) | relative viability (Halofuginone + AZD7762; first compound 0.003162 µM) | relative viability (Halofuginone + AZD7762; first compound 0.01 µM) | relative viability (Halofuginone + AZD7762; first compound 0.03162 µM) | relative viability (Halofuginone + AZD7762; first compound 0.1 µM) | relative viability (Cediranib + Pictilisib; first compound 0.04 µM) | relative viability (Cediranib + Pictilisib; first compound 0.1265 µM) | relative viability (Cediranib + Pictilisib; first compound 0.4 µM) | relative viability (Cediranib + Pictilisib; first compound 1.265 µM) | relative viability (Cediranib + Pictilisib; first compound 4 µM) | relative viability ([1]; first compound 0.001 µM) | relative viability ([1]; first compound 0.003162 µM) | relative viability ([1]; first compound 0.01 µM) | relative viability ([1]; first compound 0.03162 µM) | relative viability ([1]; first compound 0.1 µM)
1 | LOU-NH91 | 0.354 | 0.272 | 0.286 | 0.314 | 0.338 | 0.793 | 0.735 | 0.767 | 0.691 | 0.664 | 0.534 | 0.473 | 0.494 | 0.479 | 0.495 | 0.819 | 0.817 | 0.724 | 0.778 | 0.697
2 | SW 900 | 0.167 | 0.186 | 0.195 | 0.188 | 0.169 | 0.677 | 0.564 |  | 0.621 | 0.46 |  |  |  |  |  | 0.871 | 0.941 |  | 1.03 | 0.534
3 | LCLC-103H | 0.931 | 1.05 | 0.952 | 1 | 0.894 | 0.808 | 0.851 | 0.784 | 0.793 | 0.695 | 0.63 | 0.754 | 0.619 | 0.654 | 0.56 | 0.659 | 0.682 | 0.666 | 0.661 | 0.658
4 | IA-LM |  |  |  |  |  |  |  |  |  |  | 0.369 | 0.577 | 0.315 | 0.406 | 0.361 |  |  |  |  | 
5 | SK-MES-1 | 0.797 | 0.869 | 0.9 | 0.833 | 0.86 |  |  |  |  |  | 0.349 | 0.441 | 0.284 | 0.391 | 0.383 | 0.554 | 0.53 | 0.511 | 0.499 | 0.232
6 | Calu-6 |  |  |  |  |  |  |  |  |  |  | 0.97 | 0.985 | 0.931 | 0.824 | 1.13 |  |  |  |  | 
7 | SK-LU-1 | 0.203 | 0.195 | 0.183 | 0.203 | 0.194 |  |  |  |  |  | 0.632 | 0.796 | 0.54 | 0.497 | 0.498 | 0.572 | 0.504 | 0.559 | 0.461 | 0.321
8 | NCI-H2023 | 0.844 | 0.639 | 0.732 | 0.405 | 0.53 |  |  |  |  |  | 0.269 | 0.101 | 0.226 | 0.193 | 0.236 | 0.625 | 0.482 | 0.558 | 0.202 | 0.0677
9 | HCC-366 |  |  |  |  |  | 0.282 | 0.321 | 0.323 | 0.336 | 0.317 | 0.138 | 0.148 | 0.127 | 0.0996 | 0.17 | 0.395 | 0.404 | 0.338 | 0.322 | 0.166
10 | NCI-H1650 | 0.192 | 0.161 | 0.179 | 0.197 | 0.173 |  |  |  |  |  | 0.61 | 0.234 | 0.494 | 0.468 | 0.383 | 0.656 | 0.696 | 0.55 | 0.57 | 0.216
11 | SW 1573 | 0.347 | 0.324 | 0.256 | 0.21 | 0.24 |  |  |  |  |  | 0.544 | 0.486 | 0.428 | 0.474 | 0.486 | 0.563 |  | 0.596 | 0.23 | 0.0886
12 | NCI-H661 | 0.978 | 0.842 | 0.913 | 0.908 | 0.982 |  |  |  |  |  | 0.428 | 0.588 | 0.419 | 0.318 | 0.366 | 0.624 | 0.629 | 0.579 | 0.515 | 0.373
13 | NCI-H2228 | 0.118 | 0.176 | 0.129 | 0.144 | 0.14 |  |  |  |  |  | 0.522 | 0.504 | 0.459 | 0.288 | 0.557 | 0.662 | 0.4 | 0.436 | 0.39 | 0.0996
14 | COR-L23 | 0.778 | 0.768 | 0.58 | 0.571 | 0.626 |  |  |  |  |  | 0.75 | 0.821 | 0.775 | 0.501 | 0.783 | 0.681 | 0.641 | 0.592 | 0.598 | 0.0948
15 | NCI-H2342 | 0.858 | 0.801 | 0.919 | 0.704 | 0.82 | 0.458 | 0.536 | 0.507 | 0.487 | 0.588 |  |  |  |  |  | 0.816 | 0.832 | 0.972 | 0.85 | 0.823
16 | NCI-H1299 |  |  |  |  |  |  |  |  |  |  | 0.866 | 0.844 | 0.719 | 0.853 | 0.748 |  |  |  |  | 
17 | NCI-H520 | 0.251 | 0.262 | 0.188 | 0.2 | 0.308 |  |  |  |  |  | 0.312 |  | 0.246 | 0.221 | 0.22 | 0.572 | 0.734 | 0.695 | 0.45 | 0.287
18 | NCI-H522 | 1.13 |  | 1.17 | 1.03 | 1.02 | 0.969 | 0.948 | 0.974 | 0.852 | 0.813 |  |  |  |  |  | 0.734 | 0.753 | 0.791 | 0.777 | 0.633
19 | NCI-H1623 | 0.528 |  | 0.425 | 0.457 | 0.526 |  |  |  |  |  |  |  |  |  |  |  |  |  |  | 
20 | NCI-H1648 |  |  |  |  |  | 0.742 | 0.608 | 0.631 | 0.854 | 0.694 |  |  |  |  |  | 0.46 | 0.449 | 0.582 | 0.495 | 0.497
21 | NCI-H1703 |  |  |  |  |  | 0.119 | 0.121 | 0.121 | 0.13 | 0.151 | 0.226 | 0.209 | 0.209 | 0.194 | 0.221 |  |  |  |  | 
22 | ABC-1 | 0.885 | 0.714 |  | 0.44 | 0.486 |  | 0.728 | 0.689 | 0.832 | 0.775 | 0.786 | 0.566 | 0.69 |  | 0.737 |  |  |  |  | 
23 | COR-L 105 | 0.706 | 0.726 | 0.731 | 0.864 | 0.68 |  |  |  |  |  |  | 0.434 | 0.332 | 0.376 | 0.403 | 0.446 | 0.492 | 0.481 | 0.421 | 0.383
24 | NCI-H2009 | 1.09 | 0.97 | 0.995 | 1.12 | 1.05 |  |  |  |  |  | 0.769 | 0.325 | 0.644 | 0.639 | 0.822 | 0.345 | 0.343 | 0.295 | 0.234 | 0.11
